In patent US10422787B2, “System and method for single molecule detection” (ARIZONA BOARD OF REGENTS on behalf of ARIZONA STATE …, priority 2015, dated 2019):
[ ]: non-standard residue; d: D form.

Legend:
Format in all cases: binding
αvβ3 = biological target: T1, αvβ3 (Homo sapiens, UniProt P05106+P06756); assay: STM break-junction, effect of electrode modification (ligand) on frequency of large current events
T1 construct: the αVβ3 extracelluar domain of human integrin; purchased YO Proteins AB
Text: The molecular specificity of the αVβ3-RGD binding was investigated by comparing the selectivity of RGD functionalized surfaces with the selectivity of surfaces functionalized with cyclic RGE, a cyclic peptide of the same charge (RGD, pI=6.09; RGE pI=6.18) and differing by only one carbon atom. The effects of functionalizing only the probe or substrate were also investigated. The results of these experiments are summarized in Table 2 (no events were observed without functionalization). […] It can be concluded that one chemical contact is required for the high conductance to be observed, and that the specificity and frequency of events increases with the chemical specificity of the contact. In addition, specific binding results in larger current peaks at larger retraction distances than obtained with less-specific binding.
RGE is a cyclic peptide differing from RGD by only one carbon atom.
Functionalizing STM probes and substrates: The STM probes were etched from a 0.25 mm Pd wire (California Fine Wires) by an AC electrochemical etching method, and then insulated with high-density polyethylene, leaving an open apex of a few tens of nanometers in diameter. Before use, the probes were tested in 1 mM phosphate buffer (pH=7.4) at 0.5 V bias to ensure that the leakage current was <1 pA. For functionalization, the probe was gently cleaned using ethanol and water, respectively, and then dried with nitrogen flow. The probe was immersed in a 0.5 mg/mL peptide solution for ˜20 h. After that, the probe was taken out, rinsed with water, dried with nitrogen gas, and used immediately. Palladium substrates were prepared by depositing a 100 nm palladium film onto a 10 nm titanium adhesion layer coated onto a 750 μm thick silicon wafer using an electron-beam evaporator (Lesker PVD 75). The substrate was annealed with a hydrogen flame immediately before being functionalized by the same method as that for probe. Fourier transform infrared (FTIR) spectroscopy was used to characterize the functionalization. Pd substrates were also treated by UV- Ozone cleaner and H2 gas reduction (to remove PdO).
Preparation of RGD and RGE: RGD peptide, cyclo(Arg-Gly-Asp-D-Phe-Cys), was obtained from Peptides International (Louisville, Ky.). RGE peptide, cyclo(Arg-Gly-Glu-D-Phe-Cys), was synthesized by CPC Scientific (Sunnyvale, Calif.) with a purity>95%. For chip and STM tip functionalization, peptides were dissolved to a final concentration of 0.5 mg/mL in a freshly degassed 1 mM phosphate buffer (pH=7.4), which was prepared using water from a Milli-Q system with a resistance of ˜18 MΩ and a total organic carbon contamination below 4 ppb.
STM Measurements: Break junction measurements were carried out with a PicoSPM scanning probe microscope (Agilent Technologies). The Teflon liquid cells were cleaned in Piranha solution and then sonicated in Milli-Q water three times (Note that: the Piranha is highly corrosive and must be handled with extreme care). The current set point was 4 pA. Different sample bias was applied to the substrate as required. For better surface charge control, an Ag/AgCl with a salt bridge (10 mM KCl) was connected to the substrate. The tip was approached to the substrate with an integral and proportional gain of 1.0 and then left to stabilize for 0.5 h. For break junction measurements, the tip was first brought into the set point position. After 5 s of waiting, the tip was retracted 10 nm from the substrate with a speed of 0.17 nm/s, during which a current-distance trace was recorded. Subsequently, the tip was re-engaged and the retraction process repeated. About one hundred traces were collected for each experiment and at least three independent experiments were conducted for each sample (using a different substrate and tip each time).

αVβ3 integrin = αVβ3 integrin (Homo sapiens, UniProt P05106+P06756); assay: Capture of αVβ3 integrin by cyclic RGD peptide in junction device
Text: In experiments, the concentration used to obtain signals with the single molecule capture device had to be quite high (i.e., nanomolar or higher) in order for the probability of capturing a single molecule in a reasonable time to be significant. In some embodiments, this probability is proportional to the volume from which molecules can be captured in a reasonable time. For example, if the molecules diffuse freely with a diffusion constant D (e.g., about 10^−11 m^2/s), then the volume from which molecules can be collected in a time t, over a linear junction length L, is given approximately by πr^2L where r^2=Dt. Taking t=60 s and L=36 nm (approximately the length of the junction around the edge of a 12 nm diameter pore), about 40 molecules would be present at 1 nM concentration in the resulting volume of 6.5×10^−17 m^3 (=6.5×10^−14 liters). […] Thus, for a device with X=10 μm, the capture volume in 1 minute capture time becomes 10^−14 m^3 or almost 100× greater. In fact, upon the solution being flowed over the device, the effective capture length is orders of magnitude greater. […] Thus, if about a linear cm of fluid is flowed past a junction slowly enough that each volume of length equal to the junction length spends about a minute over the junction, then concentrations as small as a femtomole will yield a signal.

α4β1 = biological target: T2, α4β1 (Homo sapiens, UniProt P05556+P13612); assay: STM break-junction, effect of electrode modification (ligand) on frequency of large current events
T2 construct: purchased R&D Systems (Bio-Techne)
T2 sequence (P13612 34-977 limits assumed): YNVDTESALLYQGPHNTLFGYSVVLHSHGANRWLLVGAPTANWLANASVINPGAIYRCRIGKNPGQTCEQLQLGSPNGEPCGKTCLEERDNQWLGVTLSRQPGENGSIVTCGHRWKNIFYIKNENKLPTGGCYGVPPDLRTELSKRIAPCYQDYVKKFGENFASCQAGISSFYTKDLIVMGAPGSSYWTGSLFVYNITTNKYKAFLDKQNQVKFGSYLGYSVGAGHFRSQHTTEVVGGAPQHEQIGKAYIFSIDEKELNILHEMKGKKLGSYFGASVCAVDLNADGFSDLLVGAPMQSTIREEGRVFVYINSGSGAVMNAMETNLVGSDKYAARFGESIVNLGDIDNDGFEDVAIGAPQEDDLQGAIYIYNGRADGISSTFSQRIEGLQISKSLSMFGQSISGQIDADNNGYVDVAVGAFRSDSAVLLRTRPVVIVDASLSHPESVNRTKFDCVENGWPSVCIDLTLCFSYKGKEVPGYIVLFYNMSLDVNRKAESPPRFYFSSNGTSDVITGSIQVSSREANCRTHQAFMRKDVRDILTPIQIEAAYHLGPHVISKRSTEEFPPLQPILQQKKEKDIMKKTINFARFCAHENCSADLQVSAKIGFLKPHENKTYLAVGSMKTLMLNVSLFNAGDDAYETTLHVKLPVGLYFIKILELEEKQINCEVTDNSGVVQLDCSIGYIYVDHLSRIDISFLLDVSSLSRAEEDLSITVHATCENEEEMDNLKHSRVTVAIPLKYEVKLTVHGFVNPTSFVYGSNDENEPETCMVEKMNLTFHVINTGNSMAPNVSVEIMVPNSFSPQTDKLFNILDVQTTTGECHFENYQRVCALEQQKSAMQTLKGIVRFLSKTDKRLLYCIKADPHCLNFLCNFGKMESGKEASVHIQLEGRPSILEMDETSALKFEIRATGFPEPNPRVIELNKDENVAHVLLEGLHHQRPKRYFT
T2 sequence (P05556 21-728 limits assumed): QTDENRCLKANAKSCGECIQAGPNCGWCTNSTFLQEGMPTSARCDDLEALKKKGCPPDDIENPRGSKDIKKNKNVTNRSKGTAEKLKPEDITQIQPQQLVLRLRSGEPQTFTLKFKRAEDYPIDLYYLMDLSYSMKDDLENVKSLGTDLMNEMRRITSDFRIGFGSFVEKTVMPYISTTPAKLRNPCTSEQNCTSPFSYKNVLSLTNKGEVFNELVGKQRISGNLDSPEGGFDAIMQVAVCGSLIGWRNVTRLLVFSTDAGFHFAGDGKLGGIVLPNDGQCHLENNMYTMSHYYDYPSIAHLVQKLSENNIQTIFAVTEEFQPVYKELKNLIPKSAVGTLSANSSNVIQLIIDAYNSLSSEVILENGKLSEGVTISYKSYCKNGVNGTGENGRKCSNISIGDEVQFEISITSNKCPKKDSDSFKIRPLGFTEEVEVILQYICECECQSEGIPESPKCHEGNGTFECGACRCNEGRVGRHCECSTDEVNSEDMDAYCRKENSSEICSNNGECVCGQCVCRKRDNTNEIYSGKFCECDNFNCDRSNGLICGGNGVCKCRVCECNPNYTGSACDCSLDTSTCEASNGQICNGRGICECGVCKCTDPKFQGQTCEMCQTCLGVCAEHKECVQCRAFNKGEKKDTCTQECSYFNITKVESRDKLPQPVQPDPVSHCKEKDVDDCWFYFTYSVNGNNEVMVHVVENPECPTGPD

T1 sequence (P06756 31-992 limits assumed): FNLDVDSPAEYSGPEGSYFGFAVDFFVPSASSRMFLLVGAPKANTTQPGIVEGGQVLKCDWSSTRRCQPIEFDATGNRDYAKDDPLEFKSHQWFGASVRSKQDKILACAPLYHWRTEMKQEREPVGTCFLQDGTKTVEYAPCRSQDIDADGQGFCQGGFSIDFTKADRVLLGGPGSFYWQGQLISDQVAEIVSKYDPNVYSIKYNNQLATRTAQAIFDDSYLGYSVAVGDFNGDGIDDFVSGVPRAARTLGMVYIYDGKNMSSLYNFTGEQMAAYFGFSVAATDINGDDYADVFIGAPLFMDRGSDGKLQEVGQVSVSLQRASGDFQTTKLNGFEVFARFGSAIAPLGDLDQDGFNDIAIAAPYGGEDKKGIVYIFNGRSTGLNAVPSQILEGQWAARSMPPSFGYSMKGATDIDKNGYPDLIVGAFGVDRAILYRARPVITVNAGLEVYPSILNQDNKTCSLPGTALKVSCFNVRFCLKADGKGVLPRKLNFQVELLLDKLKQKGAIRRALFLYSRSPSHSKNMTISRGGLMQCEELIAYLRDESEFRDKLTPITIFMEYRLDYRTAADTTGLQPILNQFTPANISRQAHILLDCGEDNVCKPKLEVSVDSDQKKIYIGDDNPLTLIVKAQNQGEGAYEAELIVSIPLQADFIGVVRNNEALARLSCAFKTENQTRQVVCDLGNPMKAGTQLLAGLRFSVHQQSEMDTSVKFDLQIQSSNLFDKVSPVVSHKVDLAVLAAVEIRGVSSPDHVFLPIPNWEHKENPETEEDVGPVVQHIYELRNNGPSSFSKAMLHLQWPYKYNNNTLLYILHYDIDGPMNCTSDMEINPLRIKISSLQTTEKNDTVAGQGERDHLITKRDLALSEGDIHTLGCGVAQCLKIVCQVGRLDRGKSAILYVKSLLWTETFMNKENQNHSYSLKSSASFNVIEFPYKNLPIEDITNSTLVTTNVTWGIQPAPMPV
T1 sequence (P05106 27-718 limits assumed): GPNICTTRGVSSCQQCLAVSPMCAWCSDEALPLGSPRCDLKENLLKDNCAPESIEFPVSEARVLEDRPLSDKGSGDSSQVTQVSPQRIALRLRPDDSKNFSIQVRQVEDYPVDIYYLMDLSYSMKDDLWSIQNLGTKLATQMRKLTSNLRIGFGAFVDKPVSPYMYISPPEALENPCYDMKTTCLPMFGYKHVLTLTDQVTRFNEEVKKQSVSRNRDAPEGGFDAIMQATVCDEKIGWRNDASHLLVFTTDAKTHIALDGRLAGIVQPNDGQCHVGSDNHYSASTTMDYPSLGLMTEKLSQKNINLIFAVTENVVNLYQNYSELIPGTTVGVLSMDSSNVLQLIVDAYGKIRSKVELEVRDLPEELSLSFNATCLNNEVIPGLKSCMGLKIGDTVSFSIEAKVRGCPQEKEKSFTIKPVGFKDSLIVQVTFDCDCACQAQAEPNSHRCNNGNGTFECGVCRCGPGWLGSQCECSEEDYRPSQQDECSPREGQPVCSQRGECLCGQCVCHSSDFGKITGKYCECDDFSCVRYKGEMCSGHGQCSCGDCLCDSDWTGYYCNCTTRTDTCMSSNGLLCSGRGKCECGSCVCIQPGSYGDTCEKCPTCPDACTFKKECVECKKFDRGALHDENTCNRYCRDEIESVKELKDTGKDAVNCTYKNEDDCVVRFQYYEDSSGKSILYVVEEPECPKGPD
αVβ3 integrin, sequence (P06756 31-992 limits assumed): as the sequence (P06756 31-992 limits assumed) above
αVβ3 integrin, sequence (P05106 27-718 limits assumed): as the sequence (P05106 27-718 limits assumed) above

cyclo(RGD[dF]C) [RGD]
Ratio (selectivity αvβ3 vs α4β1) (αvβ3; Modification Tip + Substrate): 3.1
frequency of large current events, αvβ3 (αvβ3; Modification Tip + Substrate): 0.57
Ratio (selectivity αvβ3 vs α4β1) (αvβ3; Modification Tip only): 2.6
frequency of large current events, αvβ3 (αvβ3; Modification Tip only): 0.55
binding process (αVβ3 integrin): almost irreversible
frequency of large current events, α4β1 (α4β1; Modification Tip + Substrate): 0.19
frequency of large current events, α4β1 (α4β1; Modification Tip only): 0.21

cyclo(RGE[dF]C) [RGE]
Ratio (selectivity αvβ3 vs α4β1) (αvβ3; Modification Tip + Substrate): 1.2
frequency of large current events, αvβ3 (αvβ3; Modification Tip + Substrate): 0.31
Ratio (selectivity αvβ3 vs α4β1) (αvβ3; Modification Tip only): 1.3
frequency of large current events, αvβ3 (αvβ3; Modification Tip only): 0.36
frequency of large current events, α4β1 (α4β1; Modification Tip + Substrate): 0.25
frequency of large current events, α4β1 (α4β1; Modification Tip only): 0.28
